According to paper PMC5011342, “A high throughput drug screening assay to identify compounds that promote oligodendrocyte differentiation using acutely dissociated and purified oligodendrocyte precursor cells” (BMC Research Notes, 2016):
Counter-ions that a name gives are not always drawn. Like-named read-outs stand apart in the source and are kept apart here.

Columns and labels:
expanded OPCs = assay: cells; details: for viability at 0.1 µM / viability at 1 µM / viability at 10 µM: Rattus norvegicus, 72 h
Method in brief: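 Toxicity screen: compounds added at 0.1, 1 and 10 µM to PDGF-AA-expanded OPCs in 96-well plates, 3-day incubation at 37 °C, 10% CO2, then alamarBlue 1:10 for 4 h with fluorescence readout. Results set screening doses of 10/2, 2/0.4 or 0.4/0.08 µM.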

[1] = tested on: acutely dissociated and purified rat OPCs; assay: Acute OL differentiation assay (MBP expression/cell, immunofluorescent image quantification); type: cell-based
Method in brief: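 This acute differentiation assay used purified rat OPCs from postnatal day 6–7 pups, seeded into PDL/laminin-coated 96-well plates in differentiation medium lacking PDGF and FGF. Compounds were applied in quadruplicate after a 1–2 h preincubation at 37 °C, 10 % CO2, with 0.1 % DMSO negative and 40 ng/ml T3 positive controls in eight wells. After fixation on DIV4, anti-MBP immunofluorescence images yielded MBP expression/cell.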

[2] = read-out: 0.1 µM (% DMSO), alamarBlue viability of expanded OPCs, compound at 0.1 µM, sheet All Tox data
[3] = read-out: 1 µM (% DMSO), alamarBlue viability of expanded OPCs, compound at 1 µM, sheet All Tox data
[4] = read-out: 10 µM (% DMSO), alamarBlue viability of expanded OPCs, compound at 10 µM, sheet All Tox data
[5] = Rattus norvegicus, 2 uM test compound, relative to quetiapine, sheet "All OLga data", read-out: OL differentiation, 2 uM (% Quet)
[6] = Rattus norvegicus, 10 uM test compound, relative to quetiapine, sheet "All OLga data", read-out: OL differentiation, 10 uM (% Quet)
[7] = read-out: 0.1 µM (% DMSO), alamarBlue viability, NCC library compound at 0.1 µM, sheet "All Tox data"
[8] = read-out: 1 µM (% DMSO), alamarBlue viability, NCC library compound at 1 µM, sheet "All Tox data"
[9] = read-out: 10 µM (% DMSO), alamarBlue viability, NCC library compound at 10 µM, sheet "All Tox data"
[10] = Rattus norvegicus, test compound at 0.4 uM, NCC library screen, sheet "All OLga data", relative to quetiapine, read-out: 0.4 uM (% Quet)
[11] = alamarBlue viability of expanded OPCs, compound at 0.1 µM, relative to DMSO control
[12] = alamarBlue viability of expanded OPCs, compound at 1 µM, relative to DMSO control
[13] = alamarBlue viability of expanded OPCs, compound at 10 µM, relative to DMSO control
[14] = Rattus norvegicus, test compound at 2 uM, MBP expression relative to quetiapine, NCC library screen, sheet "All OLga data", read-out: 2 uM (% Quet)
[15] = Rattus norvegicus, test compound at 10 uM, MBP expression relative to quetiapine, NCC library screen, sheet "All OLga data", read-out: 10 uM (% Quet)
[16] = Rattus norvegicus, test compound at 2 uM, NCC library screen, sheet "All OLga data", relative to quetiapine, read-out: 2 uM (% Quet)
[17] = Rattus norvegicus, 0.4 uM test compound, relative to quetiapine, sheet "All OLga data", read-out: OL differentiation, 0.4 uM (% Quet)
[18] = Rattus norvegicus, test compound at 10 uM, NCC library screen, sheet "All OLga data", relative to quetiapine, read-out: 10 uM (% Quet)

CC[C@H]1OC(=O)[C@H](C)[C@@H](O[C@H]2C[C@@](C)(OC)[C@@H](O)[C@H](C)O2)[C@H](C)[C@@H](O[C@@H]2O[C@H](C)C[C@H](N(C)C)[C@H]2O)[C@](C)(O)C[C@@H](C)C(=O)[C@H](C)[C@@H](O)[C@]1(C)O [Erythromycin]
viability at 0.1 µM (expanded OPCs; [2]): 93.4% | viability at 1 µM (expanded OPCs; [3]): 89.6% | viability at 10 µM (expanded OPCs; [4]): 59.1% | activation at 2 µM [1, 5]: -40.1% | activation at 10 µM [1, 6]: -66.2%

COC(=O)CCc1ccc(OCC(O)CNC(C)C)cc1 (stereo not shown) [Esmolol, reference compound]
viability at 0.1 µM (expanded OPCs; [2]): 93.8% | viability at 1 µM (expanded OPCs; [3]): 98.2% | viability at 10 µM (expanded OPCs; [4]): 113% | activation at 2 µM [1, 5]: 39.8% | activation at 10 µM [1, 6]: 29.6% | EC50 ([1]; Rattus norvegicus, average EC50 for induction of OL differentiation from independent biological replicates, eight concentrations): 240 µM | hit in OL differentiation assay, MRF-TMC ([1]; ● = confirmed hit in this paper's assay): ●

COc1ccc2nc([S@@+]([O-])Cc3ncc(C)c(OC)c3C)[nH]c2c1 [Esomeprazole]
viability at 0.1 µM (expanded OPCs; [2]): 85.5% | viability at 1 µM (expanded OPCs; [3]): 90% | viability at 10 µM (expanded OPCs; [4]): 95.3% | activation at 2 µM [1, 5]: 12.7% | activation at 10 µM [1, 6]: -23.8%

CCCCC(=O)O[C@H]1CC[C@H]2[C@@H]3CCc4cc(O)ccc4[C@H]3CC[C@]12C [Estradiol valerate]
viability at 0.1 µM (expanded OPCs; [7]): 93.2% | viability at 1 µM (expanded OPCs; [8]): 93.5% | viability at 10 µM (expanded OPCs; [9]): 9.6% | activation at 0.4 µM [1, 10]: -65.1%

C[C@]12CC[C@@H]3c4ccc(O)cc4CC[C@H]3[C@@H]1CC[C@@H]2O [Estradiol]
viability at 0.1 µM (expanded OPCs; [2]): 81.2% | viability at 1 µM (expanded OPCs; [3]): 75.5% | viability at 10 µM (expanded OPCs; [4]): 64.6% | activation at 2 µM [1, 5]: 15.2% | activation at 10 µM [1, 6]: 32.1%

C[C@]12CC[C@@H]3c4ccc(OS(=O)(=O)O)cc4CC[C@H]3[C@@H]1CCC2=O [Estrone sulfate]
0.1 µM (% DMSO) (expanded OPCs; alamarBlue viability, NCC library compound at 0.1 µM, sheet "All Tox data"): 94.4 % DMSO | 1 µM (% DMSO) (expanded OPCs; alamarBlue viability, NCC library compound at 1 µM, sheet "All Tox data"): 83.6 % DMSO | 10 µM (% DMSO) (expanded OPCs; alamarBlue viability, NCC library compound at 10 µM, sheet "All Tox data"): 92.4 % DMSO | 2 uM (% Quet) ([1]; test compound at 2 uM, NCC library screen, sheet "All OLga data", relative to quetiapine): 12.5 % Quet | 10 uM (% Quet) ([1]; test compound at 10 uM, NCC library screen, sheet "All OLga data", relative to quetiapine): 10.2 % Quet

CN1CCN(C(=O)O[C@H]2c3nccnc3C(=O)N2c2ccc(Cl)cn2)CC1 [Eszopiclone]
0.1 µM (% DMSO) (expanded OPCs; [11]): 103.0 % DMSO | 1 µM (% DMSO) (expanded OPCs; [12]): 99.5 % DMSO | 10 µM (% DMSO) (expanded OPCs; [13]): 106.9 % DMSO | activation at 2 µM [1, 14]: -2.9% | activation at 10 µM [1, 15]: -10.2%

C=C(CC)C(=O)c1ccc(OCC(=O)O)c(Cl)c1Cl [Ethacrynic Acid]
0.1 µM (% DMSO) (expanded OPCs; [11]): 90.2 % DMSO | 1 µM (% DMSO) (expanded OPCs; [12]): 80.6 % DMSO | 10 µM (% DMSO) (expanded OPCs; [13]): 11.2 % DMSO | activation at 0.4 µM [1, 10]: -23.7% | activation at 2 µM [1, 16]: -192%

CC[C@@H](CO)NCCN[C@@H](CC)CO [Ethambutol]
0.1 µM (% DMSO) (expanded OPCs; [11]): 106.3 % DMSO | 1 µM (% DMSO) (expanded OPCs; [12]): 100.0 % DMSO | 10 µM (% DMSO) (expanded OPCs; [13]): 85.9 % DMSO | activation at 2 µM [1, 14]: 2.2% | activation at 10 µM [1, 15]: -11.9%

C#C[C@]1(O)CC[C@H]2[C@@H]3CCc4cc(O)ccc4[C@H]3CC[C@@]21C [Ethinyl Estradiol]
viability at 0.1 µM (expanded OPCs; [2]): 81% | viability at 1 µM (expanded OPCs; [3]): 88% | viability at 10 µM (expanded OPCs; [4]): 43.9% | activation at 0.4 µM [1, 17]: 7.3% | activation at 2 µM [1, 5]: -2.6%

CCc1cc(C(N)=S)ccn1 [Ethionamide]
0.1 µM (% DMSO) (expanded OPCs; [11]): 89.6 % DMSO | 1 µM (% DMSO) (expanded OPCs; [12]): 86.5 % DMSO | 10 µM (% DMSO) (expanded OPCs; [13]): 79.6 % DMSO | activation at 2 µM [1, 16]: -7.9% | activation at 10 µM [1, 18]: 7.6%

CC[C@]1(O)CC[C@H]2[C@@H]3CCC4=CCCC[C@@H]4[C@H]3CC[C@@]21C [Ethylestrenol]
viability at 0.1 µM (expanded OPCs; [7]): 98% | viability at 1 µM (expanded OPCs; [8]): 96.1% | viability at 10 µM (expanded OPCs; [9]): 54.2% | activation at 2 µM [1, 16]: -2.2% | activation at 10 µM [1, 18]: -45.5%

CCC(C(N)=O)N1CCCC1=O (stereo not shown) [Etiracetam]
viability at 0.1 µM (expanded OPCs; [2]): 86.3% | viability at 1 µM (expanded OPCs; [3]): 90.6% | viability at 10 µM (expanded OPCs; [4]): 91.7% | activation at 2 µM [1, 5]: -3.1% | activation at 10 µM [1, 6]: -6.3%

CCc1cccc2c3c([nH]c12)C(CC)(CC(=O)O)OCC3 (stereo not shown) [Etodolac]
0.1 µM (% DMSO) (expanded OPCs; [11]): 98.7 % DMSO | 1 µM (% DMSO) (expanded OPCs; [12]): 88.3 % DMSO | 10 µM (% DMSO) (expanded OPCs; [13]): 92.3 % DMSO | activation at 2 µM [1, 14]: 20.9% | activation at 10 µM [1, 15]: 7.5%

CCOC(=O)c1cncn1[C@H](C)c1ccccc1 [Etomidate]
viability at 0.1 µM (expanded OPCs; [7]): 101% | viability at 1 µM (expanded OPCs; [8]): 87.4% | viability at 10 µM (expanded OPCs; [9]): 83% | 0.1 µM (% DMSO) (expanded OPCs; [11]): 89.9 % DMSO | 1 µM (% DMSO) (expanded OPCs; [12]): 87.4 % DMSO | 10 µM (% DMSO) (expanded OPCs; [13]): 88.3 % DMSO | activation at 2 µM [1, 14]: 10.1% | activation at 2 µM [1, 16]: -2.5% | activation at 10 µM [1, 15]: -7.1% | activation at 10 µM [1, 18]: -8.3%

CCOC(=O)[C@@]1(CCCCCCOc2ccc(Cl)cc2)CO1 [Etomoxir]
viability at 0.1 µM (expanded OPCs; [2]): 85.7% | viability at 1 µM (expanded OPCs; [3]): 92.3% | viability at 10 µM (expanded OPCs; [4]): 86.2% | activation at 2 µM [1, 5]: 10.1% | activation at 10 µM [1, 6]: 5.4%

COc1cc([C@@H]2c3cc4c(cc3[C@@H](O[C@@H]3O[C@@H]5CO[C@@H](C)O[C@H]5[C@H](O)[C@H]3O)[C@H]3COC(=O)[C@H]23)OCO4)cc(OC)c1O [Etoposide]
viability at 0.1 µM (expanded OPCs; [7]): 40.9% | viability at 1 µM (expanded OPCs; [8]): 14% | viability at 10 µM (expanded OPCs; [9]): 8.9% | activation at 0.08 µM ([1]; Rattus norvegicus, test compound at 0.08 uM, NCC library screen, sheet "All OLga data", relative to quetiapine, read-out: 0.08 uM (% Quet)): -42.3%

C=C1C[C@@H]2[C@H](CC[C@]3(C)C(=O)CC[C@@H]23)[C@@]2(C)C=CC(=O)C=C12 [Exemestane]
viability at 0.1 µM (expanded OPCs; [7]): 92.7% | viability at 1 µM (expanded OPCs; [8]): 95.1% | viability at 10 µM (expanded OPCs; [9]): 102% | activation at 2 µM [1, 5]: -24.2% | activation at 10 µM [1, 6]: -57.2%

O=C1[C@H](CC[C@H](O)c2ccc(F)cc2)[C@@H](c2ccc(O)cc2)N1c1ccc(F)cc1 [Ezetimibe]
viability at 0.1 µM (expanded OPCs; [2]): 93.7% | viability at 1 µM (expanded OPCs; [3]): 87.4% | viability at 10 µM (expanded OPCs; [4]): 48.7% | activation at 0.4 µM [1, 17]: -41.3% | activation at 2 µM [1, 5]: -114%

CC(=O)OCC(CCn1cnc2cnc(N)nc21)COC(C)=O [Famciclovir]
viability at 0.1 µM (expanded OPCs; [2]): 97.6% | viability at 1 µM (expanded OPCs; [3]): 90.6% | viability at 10 µM (expanded OPCs; [4]): 106% | activation at 2 µM [1, 5]: -6.9% | activation at 10 µM [1, 6]: -8.8%

NC(N)=Nc1nc(CSCCC(N)=NS(N)(=O)=O)cs1 [Famotidine]
viability at 0.1 µM (expanded OPCs; [2]): 92.3% | viability at 1 µM (expanded OPCs; [3]): 96.4% | viability at 10 µM (expanded OPCs; [4]): 102% | activation at 2 µM [1, 5]: -2.2% | activation at 10 µM [1, 6]: 17.8%

NC(=O)OCC(COC(N)=O)c1ccccc1 [Felbamate]
viability at 0.1 µM (expanded OPCs; [7]): 92.3% | viability at 1 µM (expanded OPCs; [8]): 95.5% | viability at 10 µM (expanded OPCs; [9]): 91.9% | activation at 2 µM [1, 5]: -1.8% | activation at 10 µM [1, 6]: -7.9%
